{"source": "patent US10849881B2", "about": "“Octahydro-cyclobuta[1,2-c;3,4-c′]dipyrrol-2-yl” (Hoffmann-La Roche Inc., priority 2013, dated 2020)", "data": [{"target": "ATX (human His-tagged) (Homo sapiens (Human), UniProt Q13822)", "assay": "Human ATX enzyme inhibition assay (fluorescence quenching, MR121 substrate)", "assay_type": "biochemical", "details": "30 nM ATX, 1 μM MR121 substrate, 30° C., pH 8.0", "method_in_brief": "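Fluorescence quenching assay with MR121/tryptophan-labelled substrate analogue in Tris-HCl buffer (140 mM NaCl, CaCl2, MgCl2, 0.01% Triton X-100, pH 8.0). Serially diluted compounds were preincubated 15 min at 30 °C with 30 nM ATX (final), then 1 µM substrate (final) added and incubated 15 min at 30 °C.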", "units": {"IC50": "nM"}, "values": [{"compound": "O=C(c1ccc2[nH]nnc2c1)N1C[C@@H]2[C@H](C1)[C@H]1CN(C(=O)c3ccc(OCC(F)(F)F)cn3)C[C@@H]21", "note": "[Example 1.101, (1H-benzotriazol-5-yl)-{(3aS,3bR,6aS,6bR)-5-[5-(2,2,2-trifluoro-ethoxy)-pyridine-2-carbonyl]-octahydro-cyclobuta[1,2-c;3,4-c′]dipyrrol-2-yl}-methanone]", "IC50": 4430}, {"compound": "O=C(c1ccc2ccc(-c3ccccc3)cc2c1)N1C[C@@H]2[C@H](C1)[C@H]1CN(C(=O)c3ccc4[nH]nnc4c3)C[C@@H]21", "note": "[Example 1.050, [(3aS,3bS,6aR,6bR)-5-(1H-benzotriazole-5-carbonyl)-octahydro-cyclobuta[1,2-c;3,4-c′]dipyrrol-2-yl]-(7-phenyl-naphthalen-2-yl)-methanone]", "IC50": 8}, {"compound": "O=C(c1ccc2[nH]nnc2c1)N1CC2C(C1)C1CN(C(=O)c3cc(OCC(F)(F)F)c(C4CC4)nn3)CC21", "note": "(stereo not shown) [Example 1.095]", "IC50": 32}, {"compound": "CCOc1cc(C(=O)N2C[C@@H]3[C@H](C2)[C@H]2CN(C(=O)c4ccc5[nH]nnc5c4F)C[C@@H]32)nc2ccccc12", "note": "[Example 1.110, [(3aS,3bR,6aS,6bR)-5-(4-ethoxy-quinoline-2-carbonyl)-octahydro-cyclobuta[1,2-c;3,4-c′]dipyrrol-2-yl]-(4-fluoro-1H-benzotriazol-5-yl)-methanone]", "IC50": 32.5}, {"compound": "CC(C)Oc1cc(C(=O)N2C[C@@H]3[C@H]4CN(C(=O)c5ccc6[nH]nnc6c5)C[C@H]4[C@@H]3C2)nc2cc(C(F)(F)F)ccc12", "note": "[Example 1.070, [(3aR,3bS,6aR,6bS)-5-(1H-benzotriazole-5-carbonyl)-octahydro-cyclobuta[1,2-c;3,4-c′]dipyrrol-2-yl]-(4-isopropoxy-7-trifluoromethyl-quinolin-2-yl)-methanone]", "IC50": 4}, {"compound": "O=C(c1ccc(-c2ccc(Cl)cc2)nc1)N1C[C@@H]2[C@H](C1)[C@H]1CN(C(=O)c3ccc4[nH]nnc4c3)C[C@@H]21", "note": "[Example 1.045, [(3aS,3bS,6aR,6bR)-5-(1H-benzotriazole-5-carbonyl)-octahydro-cyclobuta[1,2-c;3,4-c′]dipyrrol-2-yl]-[6-(4-chloro-phenyl)-pyridin-3-yl]-methanone]", "IC50": 11}, {"compound": "O=C(c1cnc(OCC(F)(F)F)c(Cl)c1)N1C[C@@H]2[C@H](C1)[C@H]1CN(C(=O)c3ccc4[nH]nnc4c3)C[C@@H]21", "note": "[Example 1.109, (1H-benzotriazol-5-yl)-{(3aS,3bS,6aR,6bR)-5-[5-chloro-6-(2,2,2-trifluoro-ethoxy)-pyridine-3-carbonyl]-octahydro-cyclobuta[1,2-c;3,4-c′]dipyrrol-2-yl}-methanone]", "IC50": 301}, {"compound": "O=C(c1ccc2cc(Cl)ccc2c1)N1C[C@@H]2[C@H](C1)[C@H]1CN(C(=O)c3ccc4[nH]nnc4c3)C[C@@H]21", "note": "[Example 1, [(3aS,3bS,6aR,6bR)-5-(1H-Benzotriazole-5-carbonyl)-octahydro-cyclobuta[1,2-c;3,4-c′]dipyrrol-2-yl]-(6-chloro-naphthalen-2-yl)-methanone]", "IC50": 34}, {"compound": "O=C(c1ccc2[nH]nnc2c1)N1C[C@@H]2[C@H](C1)[C@H]1CN(C(=O)c3cc4ccccc4cn3)C[C@@H]21", "note": "[Example 1.039, [(3aR,3bS,6aR,6bS)-5-(1H-benzotriazole-5-carbonyl)-octahydro-cyclobuta[1,2-c;3,4-c′]dipyrrol-2-yl]-isoquinolin-3-yl-methanone]", "IC50": 3330}, {"compound": "COc1cc2ccccc2cc1C(=O)N1C[C@@H]2[C@H]3CN(C(=O)c4ccc5[nH]nnc5c4)C[C@H]3[C@@H]2C1", "note": "[Example 1.021, [(3aS,3bS,6aR,6bR)-5-(1H-benzotriazole-5-carbonyl)-octahydro-cyclobuta[1,2-c;3,4-c′]dipyrrol-2-yl]-(3-methoxy-naphthalen-2-yl)-methanone]", "IC50": 265}, {"compound": "(1H-benzotriazol-yl)-{(3aS,3bS,6aR,6bR)-5-[5-bromo-2-methyl-6-(2,2,2-trifluoro-ethoxy)-pyridine-3-carbonyl]-octahydro-cyclobuta[1,2-c;3,4-c′]dipyrrol-2-yl}-methanone [Example 1.103]", "IC50": 27}, {"compound": "CCOc1nc(C(=O)N2C[C@@H]3[C@H](C2)[C@H]2CN(C(=O)c4ccc5[nH]nnc5n4)C[C@@H]32)cc2ccccc12", "note": "[Example 1.092, [(3aS,3bS,6aR,6bR)-5-(1-ethoxy-isoquinoline-3-carbonyl)-octahydro-cyclobuta[1,2-c;3,4-c′]dipyrrol-2-yl]-(1H-[1,2,3]triazolo[4,5-b]pyridin-5-yl)-methanone]", "IC50": 18}, {"compound": "O=C(c1ccc2[nH]nnc2c1)N1C[C@@H]2[C@H](C1)[C@H]1CN(C(=O)N3CCc4cc(C(F)(F)F)ccc4C3)C[C@@H]21", "note": "[Example 4, [(3aR,3bS,6aR,6bS)-5-(1H-Benzotriazole-5-carbonyl)-octahydro-cyclobuta[1,2-c;3,4-c′]dipyrrol-2-yl]-(6-trifluoromethyl-3,4-dihydro-1H-isoquinolin-2-yl)-methanone]", "IC50": 70}, {"compound": "O=C(c1ccc2[nH]nnc2c1)N1C[C@@H]2[C@H](C1)[C@H]1CN(C(=O)c3cc(OCC4CC4)c4ccccc4n3)C[C@@H]21", "note": "[Example 1.071, [(3aR,3bS,6aR,6bS)-5-(1H-benzotriazole-5-carbonyl)-octahydro-cyclobuta[1,2-c;3,4-c′]dipyrrol-2-yl]-(4-cyclopropylmethoxy-quinolin-2-yl)-methanone]", "IC50": 3.5}, {"compound": "CC(C)Oc1cc(C(=O)N2C[C@@H]3[C@H]4CN(C(=O)c5ccc6[nH]nnc6c5)C[C@H]4[C@@H]3C2)cc2[nH]ccc12", "note": "[Example 1.061, [(3aS,3bS,6aR,6bR)-5-(1H-benzotriazole-5-carbonyl)-octahydro-cyclobuta[1,2-c;3,4-c′]dipyrrol-2-yl]-(4-isopropoxy-1H-indol-6-yl)-methanone]", "IC50": 40.5}, {"compound": "O=C(c1ccc2[nH]nnc2c1)N1C[C@@H]2[C@H](C1)[C@H]1CN(C(=O)c3cc(OCC(F)(F)F)c4ccccc4n3)C[C@@H]21", "note": "[Example 1.084, (1H-benzotriazol-5-yl)-{(3aS,3bR,6aS,6bR)-5-[4-(2,2,2-trifluoro-ethoxy)-quinoline-2-carbonyl]-octahydro-cyclobuta[1,2-c;3,4-c′]dipyrrol-2-yl}-methanone]", "IC50": 5}, {"compound": "CCOc1cc(C(=O)N2C[C@@H]3[C@H](C2)[C@H]2CN(C(=O)[C@@H]4CCc5[nH]nnc5C4)C[C@@H]32)nc2cc(Cl)ccc12", "note": "[Example 1.077, (7-chloro-4-ethoxy-quinolin-2-yl)-[(3aR,3bS,6aR,6bS)-5-((R)-4,5,6,7-tetrahydro-1H-benzotriazole-5-carbonyl)-octahydro-cyclobuta[1,2-c;3,4-c′]dipyrrol-2-yl]methanone]", "IC50": 7.5}, {"compound": "O=C(c1ccc2[nH]nnc2c1)N1C[C@@H]2[C@H](C1)[C@H]1CN(C(=O)c3ccc4c(c3)[nH]c3ccc(Cl)cc34)C[C@@H]21", "note": "[Example 1.068, [(3aS,3bS,6aR,6bR)-5-(1H-benzotriazole-5-carbonyl)-octahydro-cyclobuta[1,2-c;3,4-c′]dipyrrol-2-yl]-(6-chloro-9H-carbazol-2-yl)-methanone]", "IC50": 14.3}, {"compound": "CCOc1nc(C(=O)N2C[C@@H]3[C@H]4CN(C(=O)c5ccc6[nH]nnc6c5)C[C@H]4[C@@H]3C2)cc2ccccc12", "note": "[Example 1.073, [(3aR,3bS,6aR,6bS)-5-(1H-benzotriazole-5-carbonyl)-octahydro-cyclobuta[1,2-c;3,4-c′]dipyrrol-2-yl]-(1-ethoxy-isoquinolin-3-yl)-methanone]", "IC50": 3.5}, {"compound": "Cc1ccc2cc(C(=O)N3C[C@@H]4[C@H]5CN(C(=O)c6ccc7[nH]nnc7c6)C[C@H]5[C@@H]4C3)[nH]c2c1", "note": "[Example 1.035, [(3aR,3bS,6aR,6bS)-5-(1H-benzotriazole-5-carbonyl)-octahydro-cyclobuta[1,2-c;3,4-c′]dipyrrol-2-yl]-(6-methyl-1H-indol-2-yl)-methanone]", "IC50": 243}, {"compound": "O=C(c1cnc(OCC(F)(F)F)c(Br)c1)N1C[C@@H]2[C@H](C1)[C@H]1CN(C(=O)c3ccc4[nH]nnc4c3)C[C@@H]21", "note": "[Example 1.100, (1H-benzotriazol-5-yl)-{(3aS,3bS,6aR,6bR)-5-[5-bromo-6-(2,2,2-trifluoro-ethoxy)-pyridine-3-carbonyl]-octahydro-cyclobuta[1,2-c;3,4-c′]dipyrrol-2-yl}-methanone]", "IC50": 10}, {"compound": "CC(C)Oc1cc(C(=O)N2C[C@@H]3[C@H]4CN(C(=O)c5ccc6[nH]nnc6c5)C[C@H]4[C@@H]3C2)cc2c1ccn2C", "note": "[Example 1.065, [(3aS,3bS,6aR,6bR)-5-(1H-benzotriazole-5-carbonyl)-octahydro-cyclobuta[1,2-c;3,4-c′]dipyrrol-2-yl]-(4-isopropoxy-1-methyl-1H-indol-6-yl)-methanone]", "IC50": 6.5}, {"compound": "Cc1cc(C(=O)N2C[C@@H]3[C@H]4CN(C(=O)c5ccc6[nH]nnc6c5)C[C@H]4[C@@H]3C2)nc2ccccc12", "note": "[Example 1.047, [(3aR,3bS,6aR,6bS)-5-(1H-benzotriazole-5-carbonyl)-octahydro-cyclobuta[1,2-c;3,4-c′]dipyrrol-2-yl]-(4-methyl-quinolin-2-yl)-methanone]", "IC50": 205}, {"compound": "O=C(c1ccc2cc(-c3ccccc3)ccc2c1)N1C[C@@H]2[C@H](C1)[C@H]1CN(C(=O)c3ccc4[nH]nnc4c3)C[C@@H]21", "note": "[Example 1.015, [(3aS,3bS,6aR,6bR)-5-(1H-benzotriazole-5-carbonyl)-octahydro-cyclobuta[1,2-c;3,4-c′]dipyrrol-2-yl]-(6-phenyl-naphthalen-2-yl)-methanone]", "IC50": 11}, {"compound": "O=C(c1ccc2c(c1)CCCC2)N1C[C@@H]2[C@H](C1)[C@H]1CN(C(=O)c3ccc4[nH]nnc4c3)C[C@@H]21", "note": "[Example 1.054, [(3aS,3bS,6aR,6bR)-5-(1H-benzotriazole-5-carbonyl)-octahydro-cyclobuta[1,2-c;3,4-c′]dipyrrol-2-yl]-(5,6,7,8-tetrahydro-naphthalen-2-yl)-methanone]", "IC50": 59.2}]}]}
